Values after ≈ are worked out from the molar mass of the structure shown. “Also recorded” adds a separate entry of the source.
Tests used:
ecdysone receptor [1] = details: cited from earlier work
ecdysone receptor [2] = test: Activation of the ecdysone-regulable gene expression system; format: cell-based, D. melanogaster
From the text: The ecydysone-regulable gene expression system relies on a recombinant ecdysone receptor (VgEcR), which is an N-terminal truncation of the natural ecdysone receptor from D. melanogaster fused to the activation domain of VP16 from HSV; VgEcR also bears 3 point mutations in the P box of the DNA-binding domain of EcR to resemble that of the glucocorticoid receptor (GR) to allow recognition of a synthetic ecdysone-response element (E/GRE), which consists of inverted half-site recognition elements for the retinoid X receptor (RXR) and GR DNA-binding domains. The hybrid E/GRE sequence is designed to evade recognition by any endogenous nuclear receptors. With RXR, the vertebrate homologue of Drosophila ultraspiracle (Yao et al. 1992), VgEcR forms a heterodimer that binds to E/GRE and initiates transcription. The ecdysone-inducible expression system has very low basal expression (No et al. 1996), because the presence of ecdysoid hormones is obligatory for receptor heterodimerization and DNA binding (Yao et al. 1993). Finally, ecdysoid hormones have no known corresponding bioactivity in vertebrates, presumably because there are no processes homologous to molting.
That these ecdysone analogues are steroids presents the same chemical obstacle to caging as did mifepristone. Fortunately, however, members of the bisacylhydrazine family are potent activators of the ecdysone receptor, and they are accessible by facile organic synthetic routes. As shown in Preliminary Studies, we have successfully synthesized a non-steroidal ecdysoid (NSE) from this class of compounds. […] Furthermore, because non-steroidal mimics of ecdysoid molting hormone have been of great interest to the agrichemical business, the acute toxicity, mutagenicity, carcinogenicity, and teratogenicity of the bisacylhydrazine family of NSEs have been extensively tested since the compounds were serendipitously discovered as ecdysone mimetics in 1983 (see Dhadialla et al. 1998 and references therein).

[3] = tested on: EGFP-Kir2.1 fusion protein under ecdysone promoter control (VgEcR/RXR); test: Induction of reporter genes in primary rat anterior pituitary cells after adenovirus-mediated gene transfer; format: cell-based; details: 24 hours, single-cell microfluorimetry
From the text: Anterior pituitary glands were removed from female Sprague-Dawley rats, enzymatically dissociated, and plated onto No. 1 polylysine-coated glass coverslips for culturing as previously described (Ho et al. 1995). The cells were doubly infected with one adenovirus (AdVgRXR) that allows constitutive expression of a modified ecdysone receptor (VgEcR) and the retinoid X receptor (RXR) and a second adenovirus (AdGFIRK) that places under ecdysone promoter control the expression of a fusion protein between EGFP and a potassium channel of the inward rectifier family (Kir2.1). For infection, the adenoviruses were applied at 200 pfu's per cell in infection medium for 3-5 hours. The cells were then allowed to recover for 24 hours before being treated with ecdysoids (ponasterone A, NSE-1) or solvent vehicle for 24 hours.
After induction, cells were then randomly chosen through a phase-contrast view and EGFP expression in each chosen cell was monitored by single-cell microfluorimetry. Because the EGFP-Kir2.1 fusion protein should be targeted to the plasma membrane, we expect its presence in the plasma membrane as well as in the Golgi-as the images in FIG. 5 indeed illustrate. A quantitative summary of the microfluorimetric data is shown in FIG. 6 (note break in y-axis scale; N shown at the base of each bar). […]

mice = test: Toxicity in animals (intraperitoneal injections); format: in vivo; details: 8 mice, 32.5 mg/ml suspension, six 200-μl aliquots at 12-hour intervals
Experimental: NSE-1 was suspended (32.5 mg/ml) in carrier vehicle consisting of 15% w/v Pluronic F127 surfactant (BASF Corp., Wyandotte, Mich.) and 3% v/v dimethylsulfoxide in phosphate buffered saline (PBS, pH 7). […] These observations give at least preliminary data showing that NSE-1 is not acutely toxic to mammals.
NSE-1 was suspended (32.5 mg/ml) in vehicle consisting of 15% w/v Pluronic F127 surfactant (BASF Corp., Wyandotte, Mich.) and 3% v/v dimethylsulfoxide in phosphate buffered saline (PBS, pH 7).

NIH3T3-ER fibroblasts = test: Toxicity in cell culture (CyQuant DNA quantification); format: cell-based; details: 48 hours
Experimental: Cellular toxicity of NSE-1 was tested in cell culture. NIH3T3-ER fibroblasts (Stratagene, La Jolla, Calif.) were seeded into 96-well plates, allowed to attach for 24 hours in DMEM supplemented with 10% v/v fetal bovine serium (FBS). The medium was then replaced with DMEM-10 FBS containing ecdysoid drugs or solvent vehicle, and the cells were allowed to grow for 48 hours, at the end of which the cells were lysed and the amount of DNA in each well quantified through the CyQuant assay (Molecular Probes, Inc. Eugene, Oreg.).
Cellular toxicity of NSE-1 was tested in cell culture. NIH3T3-ER fibroblasts (Stratagene) were seeded into 96-well plates, allowed to attach for 24 hours in DMEM supplemented with 10% v/v fetal bovine serum (FBS). The medium was then replaced with DMEM-10% FBS containing ecdysoid drugs or solvent vehicle. Ethanol and DMSO were vehicle controls for ponasterone A and NSE-1, respectively. The cells were allowed to grow for 48 hours, at the end of which the cells were permeabilized and the amount of DNA in each well quantified with the CyQuant assay (Molecular Probes). […] The data are summarized in FIG. 1 (each measurement is the mean of 6 wells).

Aqueous solubility = format: physicochemical; details: aqueous KCl/HEPES buffer, 100 mM KCl, 10 mM K · HEPES, pH 7.4
[4] = tested on: EGFP reporter gene under ecdysone promoter control in NIH3T3-ER cells; test: Induction of reporter gene expression in transiently-transfected cells; format: cell-based; details: 30 μM, 48 hours, single-cell microfluorimetry, NIH3T3-ER cells with pEGSH-EGFP
Experimental: NIH3T3-ER cells were transiently transfected with a plasmid pEGSH-GFP carrying the reporter eGFP gene under ecdysone promoter control. The transfected cells were treated with 10 μM ponasterone A, or 30 μM NSE-1, or plain medium for 48 hours and then screened for induction of eGFP expression by single-cell microfluorimetry.
NIH3T3-ER cells, in which expression of a modified ecdysone receptor and the retinoid X co-receptor are driven by the CMV promoter, were transiently transfected with the pEGSH-EGFP plasmid using FuGene 6 transfection reagent. The transfected cells were treated with 30 μM NSE-1 or vehicle for 48 hours and then screened for induction of EGFP expression by single-cell microfluorimetry.

CC(C)(O)CC[C@@H](O)[C@](C)(O)[C@H]1CC[C@@]2(O)C3=CC(=O)[C@@H]4C[C@@H](O)[C@@H](O)C[C@]4(C)[C@H]3CC[C@]12C [20-hydroxy-ecdysone]
activation of the ecdysone receptor (ecdysone receptor [1]): moderately activated

CCc1c(OC)cccc1C(=O)NN(C(=O)c1cc(C)cc(C)c1)C(C)(C)C [NSE-1, 1-(3,5-dimethylbenzoyl)-1-tert-butyl-2-(2-ethyl-3-methoxybenzoyl)hydrazine]
activity in inducing expression of reporter genes under ecdysone promoter control, relative to ponasterone A (ecdysone receptor [2]): as active as ponasterone A
concentrations required for activating the ecdysone system (ecdysone receptor [2]): in the μM range
induction of expression of the EGFP-Kir2.1 fusion protein [3]: can strongly induce expression
signs of intoxication (mice): did not produce any signs of intoxication
growth capacity of the cells (amount of DNA, CyQuant) (NIH3T3-ER fibroblasts; 10 μM): Neither Ponasterone A at 10 μM, nor NSE-1 at 10, 30 or 100 μM significantly affected the growth capacity of the cells
growth capacity of the cells (amount of DNA, CyQuant) (NIH3T3-ER fibroblasts; 30 μM): Neither Ponasterone A at 10 μM, nor NSE-1 at 10, 30 or 100 μM significantly affected the growth capacity of the cells
growth capacity of the cells (amount of DNA, CyQuant) (NIH3T3-ER fibroblasts; 100 μM): Neither Ponasterone A at 10 μM, nor NSE-1 at 10, 30 or 100 μM significantly affected the growth capacity of the cells
solubility (Aqueous solubility): 47 µM (≈ 18 µg/mL)
induction of EGFP expression [4]: efficacy of NSE-1 in inducing transgenes in cultured cell lines; also recorded: can induce EGFP reporter expression

CC(C)CC[C@@H](O)[C@](C)(O)[C@H]1CC[C@@]2(O)C3=CC(=O)[C@@H]4C[C@@H](O)[C@@H](O)C[C@]4(C)[C@H]3CC[C@]12C [Ponasterone A, reference compound]
concentrations required for activating the ecdysone system (ecdysone receptor [2]): in the μM range
induction of expression of the EGFP-Kir2.1 fusion protein [3]: can strongly induce expression
growth capacity of the cells (amount of DNA, CyQuant) (NIH3T3-ER fibroblasts; 10 μM): Neither Ponasterone A at 10 μM, nor NSE-1 at 10, 30 or 100 μM significantly affected the growth capacity of the cells
activation of the ecdysone receptor (ecdysone receptor [1]): much more robustly activated

CC(C)CC[C@@H](O)[C@](C)(O)[C@H]1CC[C@@]2(O)C3=CC(=O)[C@]4(O)C[C@@H](O)[C@@H](O)C[C@]4(C)[C@H]3[C@H](O)C[C@]12C [muristerone A]
activation of the ecdysone receptor (ecdysone receptor [1]): much more robustly activated

From patent publication US6803479B2, “Reagents and method for spatio-temporal control of gene expression by illumination” (University of Maryland Biotechnology Institute, priority 2001, dated 2004)
